Calls of active or inactive are those of the source. No cut-off for these calls is given here.
Columns and labels:
[1] = tested on: Curvularia lunata; assay: Antifungal activity against Curvularia lunata MTCC 581 at 40 uM/ml after 48 hrs by paper disc diffusion method; format: functional; settings: MTCC 581, 48 h, read-out: IZ
[2] = tested on: Salmonella typhimurium; assay: Antibacterial activity against Salmonella typhimurium ATCC 23564 at 80 uM/ml after 24 hrs by kirby-bauer method; format: functional, Salmonella enterica subsp. enterica serovar Typhimurium; settings: Salmonella enterica, ATCC 23564, 24 h; read-out: IZ
[3] = tested on: Salmonella typhimurium; assay: Antibacterial activity against Salmonella typhimurium ATCC 23564 at 20 uM/ml after 24 hrs by kirby-bauer method; format: functional
[4] = tested on: Aspergillus flavus; assay: Antifungal activity against Aspergillus flavus MTCC 1021 at 160 uM/ml after 48 hrs by paper disc diffusion method; format: functional; settings: MTCC 1021, 48 h, read-out: IZ
[5] = tested on: Aspergillus niger; assay: Antifungal activity against Aspergillus niger MTCC 1108 at 40 uM/ml after 48 hrs by paper disc diffusion method; format: functional
[6] = tested on: Staphylococcus aureus; assay: Antibacterial activity against Staphylococcus aureus ATCC 11632 at 160 uM/ml after 24 hrs by kirby-bauer method; format: functional; settings: ATCC 11632, 24 h, read-out: IZ
[7] = tested on: Burkholderia pseudomallei; assay: Antibacterial activity against Burkholderia pseudomallei NTCC 10274 at 80 uM/ml after 24 hrs by kirby-bauer method; format: functional; settings: NTCC 10274, 24 h, read-out: IZ
[8] = tested on: QG-56; assay: Cytotoxicity against human QG56 cells after 48 hrs by MTT assay; format: functional, cell-based
[9] = tested on: Aspergillus niger; assay: Antifungal activity against Aspergillus niger MTCC 1108 at 80 uM/ml after 48 hrs by paper disc diffusion method; format: functional
[10] = tested on: Pseudomonas aeruginosa; assay: Antibacterial activity against Pseudomonas aeruginosa ATCC 15499 at 20 uM/ml after 24 hrs by kirby-bauer method; format: functional
[11] = tested on: Pseudomonas aeruginosa; assay: Antibacterial activity against Pseudomonas aeruginosa ATCC 15499 at 80 uM/ml after 24 hrs by kirby-bauer method; format: functional; settings: ATCC 15499, 24 h, read-out: IZ
[12] = tested on: Escherichia coli; assay: Antibacterial activity against Escherichia coli ATCC 35218 at 160 uM/ml after 24 hrs by kirby-bauer method; format: functional; settings: ATCC 35218, 24 h, read-out: IZ
[13] = tested on: Staphylococcus aureus; assay: Antibacterial activity against Staphylococcus aureus ATCC 11632 at 20 uM/ml after 24 hrs by kirby-bauer method; format: functional; settings: ATCC 11632, 24 h, read-out: IZ
[14] = tested on: Curvularia lunata; assay: Antifungal activity against Curvularia lunata MTCC 581 at 160 uM/ml after 48 hrs by paper disc diffusion method; format: functional; settings: MTCC 581, 48 h, read-out: IZ
[15] = tested on: Trichoderma viride; assay: Antifungal activity against Trichoderma viride MTCC 1107 at 160 uM/ml after 48 hrs by paper disc diffusion method; format: functional; settings: MTCC 1107, 48 h, read-out: IZ
[16] = tested on: Escherichia coli; assay: Antibacterial activity against Escherichia coli ATCC 35218 at 40 uM/ml after 24 hrs by kirby-bauer method; format: functional
[17] = tested on: Pseudomonas aeruginosa; assay: Antibacterial activity against Pseudomonas aeruginosa ATCC 15499 at 40 uM/ml after 24 hrs by kirby-bauer method; format: functional; settings: ATCC 15499, 24 h, read-out: IZ
[18] = tested on: Trichoderma viride; assay: Antifungal activity against Trichoderma viride MTCC 1107 at 80 uM/ml after 48 hrs by paper disc diffusion method; format: functional; settings: MTCC 1107, 48 h, read-out: IZ
[19] = tested on: Salmonella typhimurium; assay: Antibacterial activity against Salmonella typhimurium ATCC 23564 at 40 uM/ml after 24 hrs by kirby-bauer method; format: functional
[20] = tested on: Curvularia lunata; assay: Antifungal activity against Curvularia lunata MTCC 581 at 20 uM/ml after 48 hrs by paper disc diffusion method; format: functional
[21] = tested on: Curvularia lunata; assay: Antifungal activity against Curvularia lunata MTCC 581 at 80 uM/ml after 48 hrs by paper disc diffusion method; format: functional; settings: MTCC 581, 48 h, read-out: IZ
[22] = tested on: Salmonella typhimurium; assay: Antibacterial activity against Salmonella typhimurium ATCC 23564 at 160 uM/ml after 24 hrs by kirby-bauer method; format: functional, Salmonella enterica subsp. enterica serovar Typhimurium; settings: Salmonella enterica, ATCC 23564, 24 h; read-out: IZ
[23] = tested on: Staphylococcus aureus; assay: Antibacterial activity against Staphylococcus aureus ATCC 11632 at 80 uM/ml after 24 hrs by kirby-bauer method; format: functional; settings: ATCC 11632, 24 h, read-out: IZ
[24] = tested on: Trichoderma viride; assay: Antifungal activity against Trichoderma viride MTCC 1107 at 40 uM/ml after 48 hrs by paper disc diffusion method; format: functional; settings: MTCC 1107, 48 h, read-out: IZ
[25] = tested on: Aspergillus flavus; assay: Antifungal activity against Aspergillus flavus MTCC 1021 at 40 uM/ml after 48 hrs by paper disc diffusion method; format: functional
[26] = tested on: HCT-116
[27] = tested on: Trichoderma viride; assay: Antifungal activity against Trichoderma viride MTCC 1107 at 20 uM/ml after 48 hrs by paper disc diffusion method; format: functional
[28] = tested on: Staphylococcus aureus; assay: Antibacterial activity against Staphylococcus aureus ATCC 11632 at 40 uM/ml after 24 hrs by kirby-bauer method; format: functional; settings: ATCC 11632, 24 h, read-out: IZ
[29] = tested on: Burkholderia pseudomallei; assay: Antibacterial activity against Burkholderia pseudomallei NTCC 10274 at 160 uM/ml after 24 hrs by kirby-bauer method; format: functional; settings: NTCC 10274, 24 h, read-out: IZ
[30] = tested on: HepG2
[31] = tested on: Escherichia coli; assay: Antibacterial activity against Escherichia coli ATCC 35218 at 80 uM/ml after 24 hrs by kirby-bauer method; format: functional; settings: ATCC 35218, 24 h, read-out: IZ
[32] = tested on: Aspergillus flavus; assay: Antifungal activity against Aspergillus flavus MTCC 1021 at 80 uM/ml after 48 hrs by paper disc diffusion method; format: functional; settings: MTCC 1021, 48 h, read-out: IZ
[33] = tested on: Aspergillus niger; assay: Antifungal activity against Aspergillus niger MTCC 1108 at 160 uM/ml after 48 hrs by paper disc diffusion method; format: functional; settings: MTCC 1108, 48 h, read-out: IZ
[34] = tested on: Escherichia coli; assay: Antibacterial activity against Escherichia coli ATCC 35218 at 20 uM/ml after 24 hrs by kirby-bauer method; format: functional
[35] = tested on: Pseudomonas aeruginosa; assay: Antibacterial activity against Pseudomonas aeruginosa ATCC 15499 at 160 uM/ml after 24 hrs by kirby-bauer method; format: functional; settings: ATCC 15499, 24 h, read-out: IZ
[36] = tested on: Burkholderia pseudomallei; assay: Antibacterial activity against Burkholderia pseudomallei NTCC 10274 at 20 uM/ml after 24 hrs by kirby-bauer method; format: functional; settings: NTCC 10274, 24 h, read-out: IZ
[37] = tested on: Aspergillus niger; assay: Antifungal activity against Aspergillus niger MTCC 1108 at 20 uM/ml after 48 hrs by paper disc diffusion method; format: functional
[38] = tested on: Burkholderia pseudomallei; assay: Antibacterial activity against Burkholderia pseudomallei NTCC 10274 at 40 uM/ml after 24 hrs by kirby-bauer method; format: functional; settings: NTCC 10274, 24 h, read-out: IZ
[39] = tested on: Aspergillus flavus; assay: Antifungal activity against Aspergillus flavus MTCC 1021 at 20 uM/ml after 48 hrs by paper disc diffusion method; format: functional
[40] = Salmonella enterica subsp. enterica serovar Typhimurium
[41] = Salmonella enterica, ATCC 23564, 24 h, read-out: IZ

SMILES | zone of inhibition at 40 µM [1] [mm] | zone of inhibition at 80 µM [2] [mm] | zone of inhibition at 160 µM [4] [mm] | inhibition zone (IZ) [5] | zone of inhibition at 160 µM [6] [mm] | zone of inhibition at 80 µM [7] [mm] | IC50 [8] [uM/ml] | zone of inhibition at 80 µM [11] [mm] | zone of inhibition at 160 µM [12] [mm] | zone of inhibition at 20 µM [13] [mm] | zone of inhibition at 160 µM [14] [mm] | zone of inhibition at 160 µM [15] [mm] | zone of inhibition at 40 µM [17] [mm] | zone of inhibition at 80 µM [18] [mm] | zone of inhibition at 80 µM [21] [mm] | zone of inhibition at 160 µM [22] [mm] | zone of inhibition at 80 µM [23] [mm] | zone of inhibition [24] [mm] | IC50 [26] [uM/ml] | zone of inhibition at 40 µM [28] [mm] | also measured
COc1cc(/C=C/C(=O)C2=C(/C=C/c3ccc(O)c(OC)c3)NC(=O)NC2c2ccccc2)ccc1O (stereo not drawn) | 9 | 8 | 11 | inactive | 22 | 17 | 50 | 12 | 17 | 14 | 18 | 14 | 9 | 11 | 12 | 11 | 19 | 9 | 25 | 17 | inhibition zone (IZ) [3, 40]: inactive; inhibition zone (IZ) [9]: inactive; inhibition zone (IZ) [10]: inactive; inhibition zone (IZ) [16]: inactive; inhibition zone (IZ) [19, 40]: inactive; inhibition zone (IZ) [20]: inactive; inhibition zone (IZ) [25]: inactive; inhibition zone (IZ) [27]: inactive; zone of inhibition at 160 µM [29]: 19 mm; IC50 [30]: 50 uM/ml; zone of inhibition at 80 µM [31]: 9 mm; zone of inhibition at 80 µM [32]: 9 mm; zone of inhibition at 160 µM [33]: 9 mm; inhibition zone (IZ) [34]: inactive; zone of inhibition at 160 µM [35]: 14 mm; zone of inhibition at 20 µM [36]: 14 mm; inhibition zone (IZ) [37]: inactive; zone of inhibition at 40 µM [38]: 16 mm; inhibition zone (IZ) [39]: inactive
COc1cc(/C=C/C(=O)C2=C(/C=C/c3ccc(O)c(OC)c3)NC(=O)NC2c2ccc(O)cc2)ccc1O (stereo not drawn) | 20 | 16 | 13 | inactive | 24 | 15 | 50 | 19 | 22 | 16 | 21 | 16 | 19 | 14 | 20 | 18 | 22 | 11 | 12.5 | 19 | zone of inhibition at 20 µM [3, 41]: 9 mm; zone of inhibition at 80 µM ([9]; MTCC 1108, 48 h, read-out: IZ): 9 mm; zone of inhibition at 20 µM ([10]; ATCC 15499, 24 h, read-out: IZ): 17 mm; zone of inhibition at 40 µM ([16]; ATCC 35218, 24 h, read-out: IZ): 14 mm; zone of inhibition at 40 µM [19, 41]: 13 mm; zone of inhibition at 20 µM ([20]; MTCC 581, 48 h, read-out: IZ): 18 mm; zone of inhibition at 40 µM ([25]; MTCC 1021, 48 h, read-out: IZ): 9 mm; zone of inhibition at 20 µM ([27]; MTCC 1107, 48 h, read-out: IZ): 9 mm; zone of inhibition at 160 µM [29]: 19 mm; IC50 [30]: 25 uM/ml; zone of inhibition at 80 µM [31]: 18 mm; zone of inhibition at 80 µM [32]: 11 mm; zone of inhibition at 160 µM [33]: 11 mm; zone of inhibition at 20 µM ([34]; ATCC 35218, 24 h, read-out: IZ): 12 mm; zone of inhibition at 160 µM [35]: 22 mm; zone of inhibition at 20 µM [36]: 9 mm; inhibition zone (IZ) [37]: inactive; zone of inhibition at 40 µM [38]: 11 mm; inhibition zone (IZ) [39]: inactive

From ChEMBL document CHEMBL2016493, “Design, synthesis, synergistic antimicrobial activity and cytotoxicity of 4-aryl substituted 3,4-dihydropyrimidinones of curcumin” (Bioorg Med Chem Lett, 2012)
